What was measured:
Type in all cases: cell-based
[1] = system: Amycolatopsis keratiniphila NRRL B24117; assay: HiTES-IMS elicitor screen and validation, cryptic metabolites of A. keratiniphila; conditions: for induction of compound with m/z 1286 / elicitation of keratinimicin A (m/z 1811) synthesis / induction of compound with m/z 1425: HiTES-IMS, 502-member natural products library; for elicitation of keratinimicin A and keratinicyclin B, follow-up experiments: 7.8 μM vincamine, 2 μM Dhe, HR-MS
Experimental: (§1) In other examples, freshly-collected spores of S. canus or A. keratiniphila (˜10^7) were transferred to 50 mL YEME medium (3% (w/v) yeast extract, 5% peptone, 3% malt extract, 1% glucose, 34% sucrose, and 5 mM MgCl2.6H2O) in a 250 mL Erlenmeyer flask fitted with a stainless-steel spring and cultured at 30° C./250 rpm for 3 days. Mycelia were then collected by centrifugation (10 min, 3000 g, RT) and diluted into 300 mL of R4 medium to give a final concentration of 0.05% (w/v). R4 medium^1 consisted of 0.5% (w/v) glucose, 0.1% yeast extract, 0.5% MgCl2.6H2O, 0.2% CaCl2.2H2O, 0.15% proline, 0.118% valine, 0.28% TES, 50 mg/L casamino acid, 100 mg/L K2SO4, and 1× trace element solution, which contains 40 mg/L ZnCl2, 200 mg/L FeCl3.6H2O, 10 mg/L CuCl2.2H2O, 10 mg/L MnCl2.4H2O, 10 mg/L Na2B4O7.10H2O, and 10 mg/L (NH4)6Mo7O24.4H2O). Subsequently 300 μL were dispensed into six deep-well 96-well plates using a MultiFlo Microplate Dispenser. The wells were supplemented with candidate elicitors from the same 502-member natural products library used above with the aid of a CyBi-Well automated liquid transfer robot. Each well received 0.85 μL of an elicitor (from a stock concentration of 10 mM). The plates were sealed with air-permeable membranes and grown at 30° C./250 rpm. After 5 days, the samples were desalted as described above for P. protegens.
(§2) In one example, a laser ablation electrospray ionization (LAESI) DP1000 system (Protea Bioscience) coupled to a LTQ XL mass spectrometer (Thermo) was used for IMS analysis. The extension tube connecting the two instruments was kept at 130° C. with an external heater and the sample stage was kept at 10° C. during analysis. Sheath gas flow was set to 2.0 L/h. Eighty laser pulses were applied to each well to ablate samples using an 80% laser energy setting (˜850 μJ) and a 10 Hz frequency. A solution of 2:1 MeCN/water with 0.1% acetic acid (v/v) was supplied as the electrospray solution by a syringe pump running at a flow rate of 1 μL/min. The emitter was connected to high voltage power operating at +4000V or +4500V in positive ion detection mode. All data were visualized in ProteaPlot software.
In one example, after data collection, the signals observed in each well were extracted using GMSU-LAESI software (Gubbs, Inc), which gave all m/z values and the corresponding intensities per well (i.e. per elicitor). The data were binned in 1 m/z units for 3D-plotting. Signals with an intensity lower than a set threshold were not included in the 3D plots. The data were plotted in MatLab using the bar3 function. The component 2D plots were extracted from the corresponding 3D data in MatLab and plotted in Excel. The 2D plots were normalized to the highest intensity peak. Each signal was correlated with an elicitor.
Application of HiTES-IMS to Rare Actinomycetes. The disclosed approach was also applied to rare actinomycetes, a group of bacteria that account for some structurally fascinating and functionally potent metabolites, including the antibiotic of-last-resort vancomycin as well as the anticancer agent calicheamicin. Rare actinomycetes are an ideal test case for HiTES-IMS because in addition to their abundance of silent BGCs, they are difficult to manipulate genetically, thus all but precluding transcriptional reporter assays. Amycolatopsis keratiniphila NRRL B24117 were chosen as a test case. Its genome has not been sequenced, but efforts to find further BGCs that encode glycopeptide antibiotics (GPAs) using PCR had shown that it contains a vancomycin-like BGC, though a product has not yet been reported. A. keratiniphila was subjected to HiTES-IMS and obtained the metabolome shown, focusing on the mass range of typical GPAs (FIG. 9A). […] Additionally, a compound with m/z 1425 was induced by similar elicitors, including galangin and evodiamine (FIG. 10B). […]

[2] = system: Pseudomonas protegens Pf-5; assay: HiTES-IMS elicitor screen and flask validation, orfamide production; conditions: for elicitation of orfamide production: HiTES-IMS, 502-member natural products library, 96-well plates
Experimental: In one example, P. protegens was streaked out onto an LB-agar plate from frozen culture stocks and grown at 30° C. overnight. Colonies were used to inoculate 5 mL of LB in a 14 mL sterile culture tube, which was cultured 12-13 h at 30° C./250 rpm. The overnight culture was then used to inoculate 550 mL LB in a sterile Erlenmeyer flask to an initial optical density at 600 nm (OD600 nm) of 0.01. The culture was distributed into six sterile, deep-well 96-well plates (0.9 mL per well) using a MultiFlo Microplate Dispenser (BioTek). Subsequently, elicitors were added from a commercially-available 502-member natural products library (Enzo Scientific, cat #BML-2865) using a CyBi-Well automated liquid transfer robot (CyBio). Each well received 2.5 μL of an elicitor (from a stock concentration of 10 mM). The plates were sealed with air-permeable membranes and grown at 25° C./200 rpm. After 44 h, the plates were spun down, supernatants loaded onto a 96-well Strata C8-resin (Phenomenex), and the material eluted with 600 μL of 50% and 600 μL 100% MeCN into fresh 96 well plates. The eluates were then dried in a speedvac and resuspended in 30 μL of 40% MeCN (in water).
In one example, a laser ablation electrospray ionization (LAESI) DP1000 system (Protea Bioscience) coupled to a LTQ XL mass spectrometer (Thermo) was used for IMS analysis. The extension tube connecting the two instruments was kept at 130° C. with an external heater and the sample stage was kept at 10° C. during analysis. Sheath gas flow was set to 2.0 L/h. […]
As another example, Orfamides are lowly-expressed metabolites isolated from Pseudomonas protegens Pf-5 (hereafter P. protegens). […] The resulting metabolomes were analyzed using laser ablation-coupled electrospray ionization MS (LAESI-MS), an emerging method in which a mid-IR laser beam generates an ablation plume of metabolites that are ionized by an electrospray and introduced into the mass spectrometer. […] No signals were detected below m/z 1250 and above m/z 1650. […]

[3] = system: Amycolaptopsis sp. B-24117; assay: LAESI-MS elicitor screen (FIG. 20); conditions: concentration of 30 μM each
Experimental: In another example, to commence a screen, Amycolaptopsis sp. B-24117 spore stocks were used to inoculate 100 mL of R4 medium in a 500 mL Erlenmeyer flask (approx. 10^6 spores). These were grown overnight and then dispensed into 5×95 CORNING® COSTAR® 96 well cell culture plates using a BioTek MULTIFLO™ microplate dispenser. 150 μL was dispensed into each well, which were then supplemented with each 1 μL from the Natural Products small molecule library (Enzo Scientific). The plates were grown again at 30° C. and 250 rpm for 4 days before being imaged using a Laser Ablation Electrospray Mass Spectrometer (LAESI-MS), which consisted of a Protea Biosciences LAESI® DP-1000 module coupled to a THERMO SCIENTIFIC™ LTQ mass spectrometer. Imaging of each plate was conducted as per manufacturer instructions using 1:1 MeCN/water at a flow rate of 1 μL/min to ablate the samples into the mass spectrometer. The spectrum was collected for 8 seconds per well. The data were then analyzed using ProteaPlot software, searching for mass ions that were induced by elicitors and absent in untreated samples. Referring to FIG. 20, this led to identification of a mass ion (reference 230, m/s 1810, keratinimicin A).

[4] = system: Streptomyces canus NRRL B3980; assay: HiTES-IMS elicitor screen and flask validation, cryptic metabolites of S. canus
Experimental: as §1, §2
In one example, after data collection, the signals observed in each well were extracted using GMSU-LAESI software (Gubbs, Inc), which gave all m/z values and the corresponding intensities per well (i.e. per elicitor). The data were binned in 1 m/z units for 3D-plotting. […]
Application of HiTES-IMS to Streptomycetes. […] Three clusters of peaks, representing three compound families appeared to be elicited: compounds were detected with m/z ranging from 1260-1295, which further analysis identified as the amphomycins. […] A second set of induced compounds was also detected with m/z ranging from 1220-1245. […]

[5] = HiTES-IMS, 502-member natural products library

In the case of `CC[C@H]1[C@@H]2C[C@H]3[C@@H]4N(C)c5ccccc5[C@]45C[C@@H]([C@H]2[C@H]5O)N3[C@@H]1O` [ajmaline], the “induction of compound with m/z 1286” value [1] is reported as “induced”.
For `C[C@@]12CCc3occc3[C@H]1CC[C@@]13C[C@@H](CC[C@H]12)[C@@](O)(CO)C3` [cafestol], the “elicitation of orfamide production” value [2] was “Optimal production” and the “induction of orfamide A” value ([2]; flask cultures, HPLC-MS, 22 μM) was “stimulatory activity was further confirmed”.
In the case of `CC(C)[C@@]1(NC(=O)[C@@H]2C[C@@H]3c4cccc5[nH]cc(c45)C[C@H]3N(C)C2)O[C@@]2(O)[C@@H]3CCCN3C(=O)[C@H](Cc3ccccc3)N2C1=O` [dihydroergocristine], the “elicitation of keratinimicin A and keratinicyclin B, follow-up experiments” value [1] is reported as “strong stimulatory activity”, the “elicitation of keratinimicin A (m/z 1811) synthesis” value [1] is reported as “most effective elicitors” and the “elicitation of mass ion m/s 1810, keratinimicin A” value [3] is reported as “best elicitors”.
In the case of `O=c1c(O)c(-c2ccccc2)oc2cc(O)cc(O)c12` [galangin], the “induction of compound with m/z 1286” value [1] is reported as “induced” and the “induction of compound with m/z 1425” value [1] is reported as “induced”.
For `O=C1Cc2c([nH]c3ccc(Br)cc23)-c2ccccc2N1` [kenpaullone], the “elicitation of canucin A (m/z 1579) synthesis” value [4, 5] was “most effective elicitor” and the “induction of canucin A and B” value ([4]; validation, flask cultures, 17 μM) was “strong induction”.
With `O=c1c(O)c(-c2ccc(O)cc2O)oc2cc(O)cc(O)c12` [morin] the “elicitation of amphomycins (m/z 1260-1295)” value [4, 5] was “best elicitors”.
`C=C[C@H]1C[N@@]2CC[C@H]1C[C@H]2[C@H](O)c1ccnc2ccc(OC)cc12` [quinine] was tested, and the “elicitation of amphomycins (m/z 1260-1295)” value [4, 5] was “best elicitors”.
With `O=C1c2ccccc2-n2c1nc1ccccc1c2=O` [tryptanthrin] the “elicitation of mass ion m/s 1810, keratinimicin A” value [3] was “best elicitors”.
With `CC[C@]12CCCN3CCc4c(n(c5ccccc45)[C@@](O)(C(=O)OC)C1)[C@@H]32` [vincamine] the “elicitation of keratinimicin A and keratinicyclin B, follow-up experiments” value [1] was “strong stimulatory activity” and the “elicitation of keratinimicin A (m/z 1811) synthesis” value [1] was “most effective elicitors”.
For `CCC1=C[C@@H]2CN(C1)Cc1c([nH]c3ccccc13)[C@@](C(=O)OC)(c1cc3c(cc1OC)N(C)[C@H]1[C@@](O)(C(=O)OC)[C@H](OC(C)=O)[C@]4(CC)C=CCN5CC[C@]31[C@@H]54)C2` [vinorelbine], the “elicitation of orfamide production” value [2] was “Optimal production”.
With evodiamine the “induction of compound with m/z 1286” value [1] was “induced” and the “induction of compound with m/z 1425” value [1] was “induced”.

— US11549950B2, “Cryptic metabolites and method for activating silent biosynthetic gene clusters in diverse microorganisms” (The Trustees of Princeton University, priority 2017, dated 2023)
